This is an account of results in patent US20110280913A1, “Methods and Compositions for Delivering Therapeutic Agents in the Treatment of B-Cell Related Disorders” (THE OHIO STATE UNIVERSITY, priority 2008, published 2011).

In assay [1] the test system is CLL cells. Nature of the assay: Apoptosis of CLL cells with lenalidomide alone. Format: cell-based, human. Conditions: 0.5 μM lenalidomide, 48 or 72 hours. The protocol:
CLL B cells were isolated by Ficoll centrifugation using Rosette-Sep reagent (StemCell Technologies, Vancouver, BC) according to the manufacturer's instructions. CLL cells were incubated in RPMI 1640 medium supplemented with 10% heat-inactivated human serum (Valley Biomedical, Winchester, Va.), 2 mM L-glutamine (Invitrogen, Carlsbad, Calif.), and 100 U/mL penicillin/100 μg/mL streptomycin (Sigma-Aldrich, St Louis, Mo.) at 37° C. in 5% CO2.
In addition, samples with no treatment or crosslinker alone were collected at matched time points. […]
Cytotoxicity results were expressed as percentage of total positive cells over untreated control [% positive cells=(% annexin^+ and/or PI^+ cells of treatment group)−(% annexin^+ and/or PI^+ cells of untreated control)].

The test system of assay [2] is CD20. In words: Immunophenotyping (flow cytometry) of CD20 on CLL cells. In kind it is cell-based, human. The method, then:
(§1) Immunophenotyping was performed to determine the percentage and mean fluorescence intensity of CD20, CD19, CD5, CD23, CD38, CD3, and CD52 on CLL cells relative to a specific isotype control. Cells (10^6) were washed in PBS, stained with fluorochrome-labeled antibodies at 4° C., then rinsed in PBS and analyzed by flow cytometry (EPICS-XL; Beckman Coulter, Fullerton, Calif.). A total of 10,000 events were collected and analyzed using Windows Multiple Document Interface for Flow Cytometry (WinMDI). CD20, CD19, CD3, CD5, CD23, and CD38 antibodies were obtained from BD Biosciences (San Jose, Calif.), and CD52 antibody was obtained from Serotec (Raleigh, N.C.).
All analyses were performed by the Center for Biostatistics, The Ohio State University. Mixed effects models were fitted to the cytotoxicity data. Random effects associated with the interactions were always included in the models to ensure that error was not underestimated. SPSS software, version 13.0 (SPSS, Chicago, Ill.) was used for the statistical analysis. Nonparametric paired Wilcoxon signed ranked tests were performed to examine both the proportion and mean fluorescence intensity change of cells expressing specific antigens after treatment with lenalidomide or media for 48 hours. A paired t test was used to evaluate whether there was a change in CD20 expression level between cells treated with lenalidomide and untreated control.
In general terms: In flow cytometry, cells or beads pass a laser one at a time.

The test system of assay [3] is CD38. Nature of the assay: Immunophenotyping (flow cytometry) of CD38 on CLL cells. Conditions: 0.5 μM, 48 h, vs vehicle, n=6, P<0.05. Format: cell-based, human. The protocol:
as §1

Assay [4] has as its system CD19. Nature of the assay: Immunophenotyping (flow cytometry) of CD19 on CLL cells. Format: cell-based, human. Conditions: 0.5 μM, vs vehicle. The method, then:
as §1

The test system of assay [5] is CD20. In words: Intracellular CD20 staining (flow cytometry). Format: cell-based, human. The protocol: CLL cells were incubated with a molar excess of rituximab to saturate the binding of extracellular CD20. Cells were washed twice with PBS and then fixed and permeablilized using the Cytofix/Cytoperm Kit (BD Biosciences PharMingen, San Diego, Calif.) according to the manufacturer's recommendations. Cells were then incubated with CD20-phycoerythrin (PE) antibody, washed twice in PBS, and analyzed by flow cytometry. To ensure the specificity of the staining procedure, binding of IgG1-k isotype antibody was also measured.

In assay [6] the test system is CD20. Nature of the assay: Laser-scanning confocal microscopy of CD20 internalization. Format: cell-based, human. Conditions: lenalidomide 48 h at 37° C. The method, then: Binding and internalization of anti-CD20 in CLL cells were examined by laser scanning confocal microscopy. CLL cells were incubated with lenalidomide for 48 hours at 37° C. and then collected and washed twice with PBS followed by fixation with 2% paraformaldehyde. Cells were then attached on a slide glass using Cytospin (Thermo Electron, Waltham, Mass.) and permeablilized with cold acetone for 5 minutes. Before cell membrane and nucleus staining, cells were preincubated with 1% bovine serum albumin in PBS for 1 hour at room temperature to reduce nonspecific binding. Cells were incubated with 50 μg/mL concanavalin A (Invitrogen) for 5 minutes at room temperature to stain cell membrane and with 1 μg/mL DRAQ5TM (Biostatus, Leicestershire, United Kingdom) for 5 minutes at room temperature to stain nucleus. Finally, slides were rinsed twice with PBS and covered with glass for confocal microscopy observation. Green fluorescence of fluorescein isothiocyanate-CD20, red fluorescence of concanavalin A, and blue fluorescence of DRAQ5 were analyzed, and merged images were produced using Zeiss 510 META Laser Scanning Confocal Imaging Systems and LSM Image software (Carl Zeiss, Thornwood, N.Y.).

The test system of assay [7] is CLL cells. In words: ADCC, 4-hour 51Cr-release assay. Format: cell-based, human. The method, then:
For ADCC experiments, CD56^+ and CD19^+ cells were negatively purified from whole blood obtained from either healthy volunteers or CLL subjects by magnetic-activated cell sorting according to the manufacturer's recommendations (MiniMACS; Miltenyi Biotec, Auburn, Calif.). The purity of enriched populations was always greater than 95% of the total yield as detected by CD19 and CD3 staining.
ADCC activity was determined by standard 4-hour ^51Cr-release assay. ^51Cr-labeled target cells (10^5 CLL cells/mL) were incubated with media alone or in the presence of various antibodies (10 μg/mL) at 37° C. for 30 minutes. Unbound antibody was washed off and the cells plated at 10^4 cells/well. Effector cells (natural killer [NK] cells from healthy donors or CLL subjects) were then added to the plates at indicated effector-to-target (E:T) ratios. After a 4-hour incubation, supernatants were removed and measured using a gamma counter. The percentage of specific cell lysis was determined by the equation: % lysis=100×(ER−SR)/(MR−SR), where ER, SR, and MR represent experimental, spontaneous, and maximum release, respectively. Data were normalized to the untreated control.

For assay [8], the system named is Raji cell line xenograft. Conditions: Raji xenograft mouse, lenalidomide alone; cited from earlier work.
The test system of assay [9] is B-cell lymphoma cell lines. Conditions: cited from earlier work.
[10] abbreviates: dose range 0.05-3 μM, evaluated at 24, 48 and 72 hours.

As for `Nc1cccc2c1CN(C1CCC(=O)NC1=O)C2=O` (centres unmarked) [lenalidomide], the apoptosis in vitro result in assay [1] is “no apoptosis”. In assay [2] (0.5 μM, 48 h, compared with vehicle-treated controls, n=18, P<0.001), the “reduction in the proportion of CD20-expressing cells” value is “at least 40%”. Further, the “reduction in relative mean fluorescence intensity of CD20-expressing cells” value in assay [2] (0.5 μM, 48 h, compared with vehicle-treated controls, n=18, P=0.001) was “at least 40%”. For the same molecule, in [2] (setting [10]), the “concentration of maximum effect on CD20 down-regulation” value stood at 0.5 µM and the “time of maximum effect on CD20 down-regulation” value is 72 h. The “CD38 activation marker level on CLL cells” value in assay [3] is “increased levels”. The “CD19 expression on CLL cells” value in assay [4] is on record as “no changes”. The “CLL subject samples with reduction of CD20 antigen surface expression” value in assay [5] (after lenalidomide treatment) is 6 of 8. Further, the “intracellular CD20 fluorescence” value in [5] (compared with vehicle-treated controls, P=0.006) is reported as “increased intracellular fluorescence”. Moreover, the “CD20 internalization in CLL cells” value in [6] is recorded as “actively internalized”. For the same molecule, the “rituximab-mediated ADCC” value in [7] (cotreatment of autologous NK cells and primary CLL cells, 0.5 μM, 72 hours, vs NK-only controls, N=2, P=0.02) is on record as “diminished”. Further, the “rituximab-mediated ADCC” value in [7] (lenalidomide-pretreated CLL B cells, allogeneic NK cells, N=5, P<0.05) is listed as “decrease”. In addition, the “rituximab-mediated ADCC” value in [7] (lenalidomide-pretreated CLL B cells, autologous NK cells, N=2, P<0.05) is on record as “decrease”. For the same molecule, the “rituximab-mediated ADCC against target CLL subject cells” value in assay [7] (lenalidomide-treated NK cells from a healthy donor, N=4, P=0.009) is “overall enhancement”. Also, in assay [8], the NK cell expansion entry was “induced NK cell expansion” and the tumor growth entry was “failed to inhibit tumor growth”. Moreover, in assay [9], the “CD20 surface antigen expression” value is recorded as “without affecting”.
